This passage reports EC50 and IC50 results from patent US6407134B1, “Heterocyclecarbonyl amino acid hydroxyethylamino sulfonamide retroviral protease inhibitors” (G. D. Searle & Co., priority 1995, dated 2002).

As a reminder, the EC50 is the concentration at which the effect is half-maximal. One may read the IC50 as the concentration at which inhibition is half-maximal.

Read-outs that look alike come from different tables or passages of the source.

For one assay, the system named is HIV-1 in CEM cells. Nature of the assay: CEM cell assay: HIV inhibition in acutely infected cells, tetrazolium (MTT) based colorimetric assay. The conditions noted are these: Human immunodeficiency virus 1, CCRF-CEM, 168 h; CEM cells acutely infected with HIV-1, 7 days, MTT readout. Here is the method: The effectiveness of various compounds were determined in the above-described enzyme assay and in a CEM cell assay.
The HIV inhibition assay method of acutely infected cells is an automated tetrazolium based colorimetric assay essentially that reported by Pauwles et al, J. Virol. Methods, 20, 309-321 (1988). Assays were performed in 96-well tissue culture plates. CEM cells, a CD4+ cell line, were grown in RPMI-1640 medium (Gibco) supplemented with a 10% fetal calf serum and were then treated with polybrene (2 μg/ml). An 80 μl volume of medium containing 1×10^4 cells was dispensed into each well of the tissue culture plate. To each well was added a 100 μl volume of test compound dissolved in tissue culture medium (or medium without test compound as a control) to achieve the desired final concentration and the cells were incubated at 37° C. for 1 hour. […] Likewise, the intrinsic toxicity of the test compound was determined by adding medium without virus to several wells containing test compound. […]
Following the addition of virus, cells were incubated at 37° C. in a humidified, 5% CO2 atmosphere for 7 days. […] The absorbance at 590 nm was determined for each sample using a Molecular Devices microplate reader. Absorbance values for each set of wells is compared to assess viral control infection, uninfected control cell response as well as test compound by cytotoxicity and antiviral efficacy.

The target of a further assay is T1, HIV protease (Human immunodeficiency virus type 1 group M subtype B, UniProt P04585).
T1 construct: HIV protease is diluted in the assay buffer to a final enzyme concentration of 12.3 nanomolar, based on a molecular weight of 10,780
Nature of the assay: HIV protease enzyme assay (fluorescence, substrate 2-Ile-Nle-Phe(p-NO2)-Gln-ArgNH2). The format is biochemical. The source says:
The compounds of the present invention are effective HIV protease inhibitors. Utilizing an enzyme assay as described below, the compounds set forth in the examples herein disclosed inhibited the HIV enzyme. The preferred compounds of the present invention and their calculated IC50 (inhibiting concentration 50%, i.e., the concentration at which the inhibitor compound reduces enzyme activity by 50%) values are shown in Table 10. The enzyme method is described below. The substrate is 2-Ile-Nle-Phe(p-NO2)-Gln-ArgNH2. The positive control is MVT-101 (Miller, M. et al, Science, 246, 1149 (1989)] The assay conditions are as follows:
20 mM sodium phosphate, pH 6.4
The above described substrate is dissolved in DMSO, then diluted 10 fold in assay buffer. Final substrate concentration in the assay is 80 μM. HIV protease is diluted in the assay buffer to a final enzyme concentration of 12.3 nanomolar, based on a molecular weight of 10,780.
The final concentration of DMSO is 14% and the final concentration of glycerol is 18%. The test compound is dissolved in DMSO and diluted in DMSO to 10× the test concentration; 10 μl of the enzyme preparation is added, the materials mixed and then the mixture is incubated at ambient temperature for 15 minutes. […] The increase in fluorescence is monitored at 4 time points (0, 8, 16 and 24 minutes) at ambient temperature. […]

Compound `CC(C)CN(C[C@@H](O)[C@H](Cc1ccccc1)NC(=O)[C@@H](NC(=O)[C@@H]1CCCN1)C(C)(C)C)S(=O)(=O)c1ccc2c(c1)OCO2` [Entry 1] registered an EC50 in the assay on HIV-1 in CEM cells of 12 nM. Also, the IC50 on HIV protease is 2 nM. In the case of `CCC(C)[C@H](NC(=O)[C@@H]1CCCN1)C(=O)N[C@@H](Cc1ccccc1)[C@H](O)CN(CC(C)C)S(=O)(=O)c1ccc2c(c1)OCO2` (stereo partly drawn) [Entry 2], the IC50 at HIV protease (HIV protease 12.3 nanomolar, substrate 80 μM, pH 6.4, ambient temperature, read-out: IC50) worked out at 3 nM.
